Assay results reported in the CheMixHub viscosity set.
“And” between values parts separate entries of the source, which are not always exact repeats. Equal entries are not always repeated.

Tests used:
[1] = xn = mol fraction of the nth substance listed

[Cl-].[Cl-].[Cl-].[Sb+3]
Conditions	viscosity [mPa·s]
323.15 K, 101 kPa	3.926

CC[N+](=O)[O-]
viscosity
Conditions	293.15 K	298.15 K	303.15 K	308.15 K	313.15 K	318.15 K
101 kPa	–	–	0.5737 mPa·s	0.5507 mPa·s	–	0.5009 mPa·s
101.33 kPa	0.68 mPa·s and 0.679 mPa·s and 0.679 mPa·s	0.638 mPa·s	0.605 mPa·s and 0.605 mPa·s	–	0.544 mPa·s and 0.544 mPa·s	–

CCCCCCCCCC(=O)OCC
Conditions	viscosity [mPa·s]
298.15 K, 100 kPa	2.112

CCn1ccnc1
viscosity [mPa·s]
Conditions	298.15 K	308.15 K	318.15 K
100 kPa	1.93	1.59	1.34
101 kPa	1.933	1.594	1.343

CCCCC(CC)COP(=O)(OCC(CC)CCCC)OCC(CC)CCCC (stereo not drawn)
Conditions	viscosity [mPa·s]
308.15 K, 101 kPa	8.206

CCC(C)(C)C
Conditions	viscosity [mPa·s]
298 K, 101.33 kPa	0.3406

OC1CCCCCC1
100 kPa
Conditions	viscosity [mPa·s]
293.15 K	68.77
298.15 K	53.6
303.15 K	43.34
308.15 K	35.61
313.15 K	30.84
318.15 K	26.6

O=C(O)C(Cl)(Cl)Cl
Conditions	viscosity
323.15 K, 101 kPa	4.824 mPa·s (2×) and 5.323 mPa·s and 4.797 mPa·s

CCCC(=O)OCC
Conditions	viscosity [mPa·s]
303.15 K, 101 kPa	0.5776

Cc1ccncc1
Conditions	viscosity [mPa·s]
298.15 K, 101.33 kPa	0.86

CCCCCCCCCC(=O)OCC + CCCCCO
viscosity [mPa·s], [1], 100 kPa
Conditions	x1 = 0.1005	x1 = 0.201	x1 = 0.3	x1 = 0.4	x1 = 0.498	x1 = 0.5999	x1 = 0.7009	x1 = 0.7997	x1 = 0.8996
293.15 K	3.246	2.808	2.563	2.417	2.33	2.29	2.258	2.259	2.289
298.15 K	2.839	2.481	2.277	2.156	2.086	2.052	2.031	2.036	2.061
303.15 K	2.493	2.202	2.036	1.943	1.878	1.852	1.834	1.842	1.866
308.15 K	2.218	1.965	1.827	1.744	1.698	1.683	1.668	1.676	1.702
313.15 K	1.966	1.762	1.648	1.581	1.543	1.529	1.522	1.536	1.558
318.15 K	1.823	1.586	1.492	1.438	1.408	1.396	1.396	1.408	1.432

CCCC(=O)OCC + c1ccccc1
[1]
Conditions	viscosity [mPa·s]
303.15 K, 101.33 kPa, x2 = 0.0662	0.591
303.15 K, 101.33 kPa, x2 = 0.2048	0.581
303.15 K, 101.33 kPa, x2 = 0.3293	0.571
303.15 K, 101.33 kPa, x2 = 0.4394	0.563
303.15 K, 101.33 kPa, x2 = 0.5452	0.559
303.15 K, 101.33 kPa, x2 = 0.5996	0.555
303.15 K, 101.33 kPa, x2 = 0.6452	0.554
303.15 K, 101.33 kPa, x2 = 0.7372	0.551
303.15 K, 101.33 kPa, x2 = 0.8161	0.551
303.15 K, 101.33 kPa, x2 = 0.8938	0.554
303.15 K, 101.33 kPa, x2 = 0.9658	0.555
308.15 K, 101.3 kPa, x1 = 0.0473	0.534
308.15 K, 101.3 kPa, x1 = 0.099	0.531
308.15 K, 101.3 kPa, x1 = 0.1937	0.528
308.15 K, 101.3 kPa, x1 = 0.2987	0.526
308.15 K, 101.3 kPa, x1 = 0.4059	0.527
308.15 K, 101.3 kPa, x1 = 0.4998	0.529
308.15 K, 101.3 kPa, x1 = 0.5753	0.533
308.15 K, 101.3 kPa, x1 = 0.7021	0.541
308.15 K, 101.3 kPa, x1 = 0.7978	0.55
308.15 K, 101.3 kPa, x1 = 0.903	0.562
308.15 K, 101.3 kPa, x1 = 0.9514	0.569
313.15 K, 101.33 kPa, x2 = 0.2126	0.539
313.15 K, 101.33 kPa, x2 = 0.4055	0.521
313.15 K, 101.33 kPa, x2 = 0.507	0.513
313.15 K, 101.33 kPa, x2 = 0.6031	0.506
313.15 K, 101.33 kPa, x2 = 0.8066	0.496
318.15 K, 101.3 kPa, x1 = 0.0473	0.47
318.15 K, 101.3 kPa, x1 = 0.099	0.471
318.15 K, 101.3 kPa, x1 = 0.1937	0.472
318.15 K, 101.3 kPa, x1 = 0.2987	0.476
318.15 K, 101.3 kPa, x1 = 0.4059	0.481
318.15 K, 101.3 kPa, x1 = 0.4998	0.486
318.15 K, 101.3 kPa, x1 = 0.5753	0.491
318.15 K, 101.3 kPa, x1 = 0.7021	0.502
318.15 K, 101.3 kPa, x1 = 0.7978	0.512
318.15 K, 101.3 kPa, x1 = 0.903	0.525
318.15 K, 101.3 kPa, x1 = 0.9514	0.531
